These results are taken from ChEMBL document CHEMBL4014349, “Application of Structure-Based Design and Parallel Chemistry to Identify a Potent, Selective, and Brain Penetrant Phosphodiesterase 2A Inhibitor” (J Med Chem, 2017).

Holding throughout (type): ADME, organism-based
A short description of data set [1]: Drug uptake in mouse brain at […], sc after 30 mins. The following applies: read-out: Drug uptake.
Data set [2] in a line: Drug uptake in rat brain at 3 mg/kg, sc after 30 mins. The following applies: read-out: Drug uptake.
Data set [3] has as its system Brain. As to the kind of experiment: Unbound concentration in mouse brain at […], sc after 30 mins. The conditions noted are these: in vivo, 0.5 h.
The test system of data set [4] is Brain. As to the kind of experiment: Unbound concentration in rat brain at 3 mg/kg, sc after 30 mins. The conditions noted are these: in vivo, 0.5 h.
Data set [5] is described as follows: Drug uptake in mouse plasma at […], sc after 30 mins.
Data set [6] can be described thus: Drug uptake in rat plasma at 3 mg/kg, sc after 30 mins.
For data set [7], the system named is Plasma. As to the kind of experiment: Unbound concentration in mouse plasma at […], sc after 30 mins. The following applies: in vivo, 0.5 h.
The test system of data set [8] is Plasma. As to the kind of experiment: Unbound concentration in rat plasma at 3 mg/kg, sc after 30 mins. The conditions noted are these: in vivo, 0.5 h.
Data set [9] in a line: Ratio of unbound concentration in mouse brain to plasma at […], sc after 30 mins. The following applies: brain and plasma, read-out: K(p,uu,brain).
Data set [10] can be described thus: Ratio of unbound concentration in rat brain to plasma at 3 mg/kg, sc after 30 mins. The conditions noted are these: brain and plasma, read-out: K(p,uu,brain).
Data set [11] is described as follows: Drug uptake in rat cerebrospinal fluid at 3 mg/kg, sc after 30 mins. The following applies: read-out: Drug uptake.

In the case of `Cn1ncc(-c2nn(C)c3ncnc(N4CCC4)c23)c1-c1ccc(C(F)(F)F)cc1`, the concentration at 0.5 h in data set [1] turned out to be 452 nM; in data set [2] it was 950 nM; in data set [5], 798 nM; in data set [6], 776 nM; in data set [11], 79.9 nM. For the same compound, the “Drug uptake(free)” value was 43 nM with Brain [3] and 90.2 nM in the data set on Brain [4]. In addition, the results for the “Cp(f)” value with Plasma [7] and with Plasma [8] were 160 nM and 248 nM, respectively. Also, the Kp uu at 0.5 h is 0.27 in data set [9] and 0.37 in [10].
